Laboratory results from article PMC7851395 (British Journal of Cancer, 2020).

What was measured:
[1] = system: NSCLC cells (PC-9, A549 or H460); experiment: cells; format: cell-based, human; conditions: Supplementary Table 1, cell line (PC-9, A549 or H460) not assignable
Procedure: (§1) The cytotoxicity and viability of human NSCLC cells and normal cells were determined by MTT assay. MTT assay was performed as described previously.[22] MTT assay was used to determine the cell cytotoxicity and viability in human NSCLC cells. Cells (5 × 10^3 cells/well) were plated in 96-well plates and attached overnight. After the proper treatment, the MTT solution was added at 25 µL/well and incubated at 37 °C for 4 h. The formazan crystals were dissolved in 150 µL of DMSO, and the optical density (OD) was measured using a Microplate Reader at 490 nm. The cell viability was calculated by the following formula: viability = (average OD values of treatment wells/average OD values of vehicle control wells) × 100%. And half-maximal inhibitory concentration (IC50) values were determined by GraphPad Pro Prism 7.0.

[2] = system: P-CDK9, CDK9, P-STAT3 and S2 RNAPII; experiment: Western blot of CDK9/STAT3 pathway proteins; format: cell-based, human; conditions: H460 and PC-9 cells, 12 h; acetyl-bufalin 25-200 nM, SNS-032 200 nM
Procedure: Tissue proteins were extracted with tissue protein lysate buffer. Cells were grown to different densities and extracted with cell protein lysate buffer. The protein was mixed with loading buffer and boiled for 10 min at 100 °C, then loaded and separated by 10% or 12% sodium dodecyl sulfate-polyacrylamide gel (SDS-PAGE) and then transferred onto a PVDF membrane blocking with 5% skim milk. The blots were incubated overnight with specific primary antibodies at 4 °C. On the second day, after washing with TBST (a mixture of tris-buffered saline (TBS) and Tween 20) three times, the […] membranes were incubated with horseradish peroxidase-conjugated secondary antibodies for 1 h. The immunoreactive bands were visualised with enhanced chemiluminescence reagent.

[3] = system: H460 xenograft; format: in vivo, BALB/c nude mice; conditions: 2 mg/kg i.p. every other day, compared with vehicle
Procedure: All animal procedures were done accordingly with the Institutional laboratory animal research guidelines and were approved by Wenzhou Medical University Animal Policy and Welfare Committee. Female athymic BALB/c nude mice (5–6 weeks old) and immune-defective non-obese […] diabetic severe combined immunodeficiency (NOD-SCID) mice (6–8 weeks old) were purchased from the Vital River Experimental Animal Center (Beijing, China). All the mice were housed under 12 h light–dark cycles at 25 °C and free for water and diet. For the xenograft model, the H460 cells (5 × 10^6 cells were mixed with an equal volume of PBS and Matrigel in 100 μL) were implanted on the hind flank of nude mice. Once tumour volumes reached ~50 mm^3, 24 mice were divided into four experimental groups (six mice per group, no differences in mean body weights or tumour volumes between the groups) and intraperitoneal injection with 2 mg/kg SNS-032 (a recognised CDK9 inhibitor), bufalin and acetyl-bufalin every other day. Tumour volume was measured as V = (L × W × W)/2, in which L and W represent the length and width of tumour. Animals were killed by cervical dislocation once the tumour volume reached 1000 mm^3. The tumours, hearts, livers, kidneys and lungs were removed for use in the histology and western blot analysis.

[4] = system: A549 cells; experiment: MTT cytotoxicity assay, A549 cells; format: cell-based; conditions: Homo sapiens, A549
Procedure: as §1

[5] = system: H460 cells; experiment: MTT cytotoxicity assay, H460 cells; format: cell-based; conditions: Homo sapiens, NCI-H460
Procedure: as §1

[6] = system: PC-9 cells; experiment: MTT cytotoxicity assay, PC-9 cells; format: cell-based; conditions: Homo sapiens
Procedure: as §1

[7] = target: T1, CDK9 (Homo sapiens, UniProt P50750); experiment: HuProt human proteome microarray binding; conditions: 10 μM on HuProt microarray, CDK9 spots
T1 construct: GST (N); purchased CDI Laboratories, Baltimore, MD Arrayit HuProt v2.0 19 K Human Proteome Microarrays
T1 sequence (P50750 whole entry): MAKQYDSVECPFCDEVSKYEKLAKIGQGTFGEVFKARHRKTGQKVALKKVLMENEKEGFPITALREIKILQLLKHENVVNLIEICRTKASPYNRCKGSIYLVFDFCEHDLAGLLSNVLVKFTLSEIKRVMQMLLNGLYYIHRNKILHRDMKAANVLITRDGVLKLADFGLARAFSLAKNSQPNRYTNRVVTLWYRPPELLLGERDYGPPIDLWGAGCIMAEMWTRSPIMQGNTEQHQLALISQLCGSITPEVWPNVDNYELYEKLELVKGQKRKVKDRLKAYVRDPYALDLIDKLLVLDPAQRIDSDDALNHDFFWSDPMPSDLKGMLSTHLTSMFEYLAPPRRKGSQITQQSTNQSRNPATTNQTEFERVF
Procedure: Arrayit HuProt™ v2.0 19 K Human Proteome Microarrays (CDI Laboratories, Baltimore, MD) were blocked for 1 h with 3% BSA at room temperature. Biotinylated bufalin was diluted to 10 μM in blocking buffer and cultured on the proteome microarray at room temperature for 1 h. The arrays were washed with PBST (a mixture of PBS and Tween 20) and incubated with Cy3-Streptavidin at 1:1000 dilution (Sigma-Aldrich) for 1 h at room temperature. Finally, the microarray was spun dry and scanned with a GenePix 4200 A microarray scanner (Molecular Devices, San Jose, CA). Data were analysed by GenePix Pro 6.0 software. The signal-to-noise ratio (SNR) was defined as the ratio of median foreground value minus median background value. The cut-off value of SNR (>1.1) was set.

[8] = system: NIH mice; experiment: Acute toxicity test; format: in vivo; conditions: 30 mg/kg single intraperitoneal injection, observed 14 days, n = 10
Procedure: In the acute toxicity test, 30 NIH mice (female, 8 weeks old) were randomly divided into three groups (n = 10), including vehicle group, bufalin group (30 mg/kg) and acetyl-bufalin group (30 mg/kg). The three groups received intraperitoneal injection only on the first day. All the mice were housed under 12 h light–dark cycles at 25 °C and free for water and diet. […] All the mice were sacrificed by cervical dislocation.

[9] = Pharmacokinetic study in rat plasma (LC-MS/MS); format: in vivo, S.D. rats; conditions: 0.25 mg/kg i.v. and 2 mg/kg i.p.
Procedure: For the pharmacokinetic study, female S.D. rats (body weight 200 ± 10 g) have fasted overnight with free access to water before the experiment. Twelve rats were randomly divided into four groups. The time schedule included eight timepoints, and three S.D. rats were sampled at each time-point. Bufalin and acetyl-bufalin were administered intravenously and intraperitoneally to the rats at the dose of 0.25 mg/kg and 2 mg/kg, respectively. The animals had free access to water during the experiment. Blood samples were collected from the retro-orbital plexus of each rat at 0.083, 0.25, 0.5, 1, 2, 4, 6, 8, 12, 24 h after administration. Plasma was separated from the blood after centrifugation at 6000×g for 10 min and frozen at −20 °C until analysis. In total, 20 µL of standard samples in duplicate, quality control samples in duplicate and rat plasma samples were mixed with 60 µL of ethyl acetate containing IS (200 ng/mL of tolbutamide, 50 ng/mL of propranolol and 500 ng/mL of Dic) in EP tubes. After the mixture was vortexed for 1 min, then centrifuged for 10 min (13,000 rpm, 4 °C), transferred 50 µL supernatant to a 96-well plate with 150 µL purred water, shacked for 10 min and finally injected 5 µL into liquid chromatographic-tandem mass spectrometry (LC-MS/MS) system for analysis.

For CC(=O)O[C@H]1[C@H]2O[C@]23[C@@H]2CC[C@]4(O)C[C@@H](O)CC[C@]4(C)[C@H]2CC[C@]3(C)[C@H]1c1ccc(=O)oc1 [Cinobufotalin], the IC50 ([1]; Homo sapiens) was 0.587 µM.

With CC(C)(C)c1cnc(CSc2cnc(NC(=O)C3CCNCC3)s2)o1 [SNS-032, reference compound] the “P-CDK9, CDK9, P-STAT3 and S2 RNAPII expressions” value [2] was “significantly dose-dependently decreased” and the “tumour growth (weight and volume)” value [3] was “significantly inhibited tumour growth”.

Compound C[C@]12CC[C@H](O)C[C@H]1CC[C@@H]1[C@@H]2CC[C@]2(C)[C@@H](c3ccc(=O)oc3)C[C@H]3O[C@]132 [Resibufogenin] has an IC50 [4] of 1.13 µM, an IC50 [5] of 1.06 µM and an IC50 ([6]; PC-9) of 4.64 µM.

CC(=O)O[C@H]1C[C@]2(O)[C@@H]3CC[C@@H]4C[C@@H](O)CC[C@]4(C)[C@H]3CC[C@]2(C)[C@H]1c1ccc(=O)oc1 [Bufotalin] showed an IC50 ([1]; Homo sapiens) of 0.813 µM.

For CC(=O)O[C@H]1[C@H]2O[C@]23[C@@H]2CC[C@@H]4C[C@@H](O)CC[C@]4(C)[C@H]2CC[C@]3(C)[C@H]1c1ccc(=O)oc1 [Cinobufagin], the IC50 ([1]; Homo sapiens) was 0.414 µM.

With Resibufagin the IC50 [1] was 16 µM.

With C[C@]12CC[C@H](OC(=O)CCCC[C@@H]3SC[C@@H]4NC(=O)N[C@@H]43)C[C@H]1CC[C@@H]1[C@@H]2CC[C@]2(C)[C@H](c3ccc(=O)oc3)CC[C@@]12O [bio-bufalin] the IC50 ([6]; PC-9, 48 h) was 0.0771 µM and the “signal-to-noise ratio (SNR)” value [7] was 6.748.

For C[C@]12CC[C@H](O)C[C@H]1CC[C@@H]1[C@@H]2CC[C@]2(C)[C@@H](c3ccc(=O)oc3)CC[C@]12O [bufalin, reference compound], the “mortality (mice died)” value [8] was 10/10, the IC50 [4] was 0.0832 µM and the IC50 [5] was 0.0647 µM. For the same compound, the IC50 ([6]; PC-9, 48 h) was 0.141 µM, the “tumour growth (weight and volume)” value [3] was “significantly inhibited tumour growth” and the absorption [9] was “fast absorption”.
